For eight compounds, IC50 results are on record in patent EP4755888A1 (ILAb Co., Ltd., priority 2023, dated 2025).

The structures appear in SMILES notation.

Sequence of PD-1/PD-L1 (Q9NZQ7 19-238 limits assumed): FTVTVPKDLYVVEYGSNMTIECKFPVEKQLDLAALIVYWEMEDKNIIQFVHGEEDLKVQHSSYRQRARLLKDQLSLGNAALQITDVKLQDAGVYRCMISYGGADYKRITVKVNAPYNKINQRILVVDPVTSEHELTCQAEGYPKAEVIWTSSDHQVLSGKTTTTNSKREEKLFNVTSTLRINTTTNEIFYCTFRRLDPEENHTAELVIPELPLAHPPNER

The test deals with PD-1/PD-L1 (Homo sapiens, UniProt Q9NZQ7). The test is described as follows: TR-FRET PD-1/PD-L1 binding inhibition at the molecular level (free proteins). As to conditions: Tag1-PD-L1 and Tag2-PD-1 proteins, twelve concentrations from 200 nM, 2 hours at room temperature, read-out: FRET assay (IC50). The method in brief:
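HTRF read-out at 665/620 nm after 2 h at room temperature. Detection used anti-Tag1 Eu cryptate plus anti-Tag2 XL665 antibodies. Tagged PD-L1 and PD-1 proteins were pre-mixed with compound across twelve […] 1:2 dilutions starting at 200 nM.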
With `O=C(Nc1cccc(-c2cccc(Nc3nccc4cc(CN5CC[C@@H](O)C5)cnc34)c2Cl)c1Cl)c1cc2n(n1)CCCC2N1CCCC1=O` (stereo partly drawn) [Compound 240, N-(2,2'-dichloro-3'-((3-(((R)-3-hydroxypyrrolidin-1-yl)methyl)-1,7-naphthyridin-8-yl)amino)-[1,1'-biphenyl]-3-yl)-4-(2-oxopyrrolidin-1-yl)-4,5,6,7-tetrahydropyrazolo[1,5-a]pyridine-2-carboxamide], the IC50 is 0.01 to 0.1 µM.
For `Cc1c(NC(=O)c2cc3n(n2)CCCC3NC(C)(C)C(=O)O)cccc1-c1cccc(Nc2nc(C(F)F)nc3cc(CN4CC[C@@H](O)C4)cnc23)c1C` (stereo partly drawn) [Compound 137, 2-((2-((3'-((2-(difluoromethyl)-7-(((R)-3-hydroxypyrrolidin-1-yl)methyl)pyrido[3,2-d]pyrimidin-4-yl)amino)-2,2'-dimethyl-[1,1'-biphenyl]-3-yl)carbamoyl)-4,5,6,7-tetrahydropyrazolo[1,5-a]pyridin-4-yl)amino)-2-methylpropanoic acid], the IC50 was under 0.01 µM.
As to `Cc1c(NC(=O)c2cc3n(n2)CCCC3NC[C@@H]2CCC(=O)N2)cccc1-c1cccc(Nc2nccc3cc(CN4CC[C@@H](O)C4)cnc23)c1C` (stereo partly drawn) [Compound 15, N-(3'-((3-(((R)-3-hydroxypyrrolidin-1-yl)methyl)-1,7-naphthyridin-8-yl)amino)-2,2'-dimethyl-[1,1'-biphenyl]-3-yl)-4-((((S)-5-oxopyrrolidin-2-yl)methyl)amino)-4,5,6,7-tetrahydropyrazolo[1,5-a]pyridine-2-carboxamide], the IC50 is under 0.01 µM.
In the case of `COc1nc(-c2cccc(-c3cccc(-c4cc5n(n4)CCCC5N4CCC(C(=O)O)CC4)c3C)c2C)cnc1CNC[C@@H]1CCC(=O)N1` (stereo partly drawn) [Compound 167, 1-(2-(3'-(6-methoxy-5-(((((S)-5-oxopyrrolidin-2-yl)methyl)amino)methyl)pyrazin-2-yl)-2,2'-dimethyl-[1,1'-biphenyl]-3-yl)-4,5,6,7-tetrahydropyrazolo[1,5-a]pyridin-4-yl)piperidine-4-carboxylic acid], the IC50 lay within 0.01 to 0.1 µM.
Consider `Cc1c(NC(=O)c2cc3n(n2)CCCC3NC[C@@H]2CCC(=O)N2)cccc1-c1cccc(-c2nc3cc(CN4CC[C@@H](C(=O)O)C4)cc(C#N)c3o2)c1C` (stereo partly drawn) [Compound 65, (3R)-1-((7-cyano-2-(2,2'-dimethyl-3'-(4-((((S)-5-oxopyrrolidin-2-yl)methyl)amino)-4,5,6,7-tetrahydropyrazolo[1,5-a]pyridine-2-carboxamido)-[1,1'-biphenyl]-3-yl)benzo[d]oxazol-5-yl)methyl)pyrrolidine-3-carboxylic acid], for which the IC50 was under 0.01 µM.
As to `Cc1c(NC(=O)c2cc3n(n2)CCN(CC(=O)O)C3)cccc1-c1cccc(Nc2nc(C(F)F)nc3cc(CN4CC[C@@H](O)C4)cnc23)c1C` [Compound 328, (R)-2-(2-((3'-((2-(difluoromethyl)-7-((3-hydroxypyrrolidin-1-yl)methyl)pyrido[3,2-d]pyrimidin-4-yl)amino)-2,2'-dimethyl-[1,1'-biphenyl]-3-yl)carbamoyl)-6,7-dihydropyrazolo[1,5-a]pyrazin-5(4H)-yl)acetic acid], the IC50 was under 0.01 µM.
Consider `O=C(Nc1cccc(-c2cccc(Nc3nccc4cc(CN5CC[C@@H](O)C5)cnc34)c2Cl)c1Cl)c1cc2n(n1)CCCC2N1CCC(C(=O)O)CC1` (stereo partly drawn) [Compound 24, 1-(2-((2,2'-dichloro-3'-((3-(((R)-3-hydroxypyrrolidin-1-yl)methyl)-1,7-naphthyridin-8-yl)amino)-[1,1'-biphenyl]-3-yl)carbamoyl)-4,5,6,7-tetrahydropyrazolo[1,5-a]pyridin-4-yl)piperidine-4-carboxylic acid], for which the IC50 lay in the range of 0.01 to 0.1 µM.
Take `Cc1c(NC(=O)c2cc3n(n2)CCCC3N2CC[C@@H](O)C2)cccc1-c1cccc(-c2nc3c(s2)CCN(C)C3)c1C` (stereo partly drawn) [Compound 154, N-(2,2'-dimethyl-3'-(5-methyl-4,5,6,7-tetrahydrothiazolo[4,5-c]pyridin-2-yl)-[1,1'-biphenyl]-3-yl)-4-((R)-3-hydroxypyrrolidin-1-yl)-4,5,6,7-tetrahydropyrazolo[1,5-a]pyridine-2-carboxamide]: the concentration for half-maximal inhibition (IC50) was in the range of 0.01 to 0.1 µM.
